Assay results published in PMC10333392 (Molecular Imaging and Biology, 2023).
Entries after “also recorded” stand apart in the source; their conditions may differ.

Experiments:
NMDA PCP site = target: T1, NMDA PCP site (Rattus norvegicus, UniProt P35439); assay: [^3H]TCP radioligand competition binding on rat brain membranes; details: for IC50: inhibition of [^3H]TCP binding
T1 construct: from tissue; host or cells: Wistar rat hippocampus, frontal cortex or forebrain synaptic membranes

[1] = target: T2, NMDA receptor glycine site (Rattus norvegicus, UniProt P35439); assay: [^3H]glycine competition binding, rat forebrain membranes; details: radioligand [^3H]-glycine
T2 construct: from tissue; host or cells: Wistar rat forebrain synaptic membranes

[2] = target: T3, Dopaminergic receptor (D2) (Rattus norvegicus, UniProt P61169); assay: [^3H]raclopride competition binding, rat striatum membranes; details: radioligand [^3H]-raclopride
T3 construct: from tissue; host or cells: Wistar rat brain synaptic membranes (striatum according to the earlier reading)

Kaïnate receptor = type: binding, rat
AMPA receptor = assay: [^3H]AMPA competition binding, rat forebrain membranes; details: radioligand [^3H]-AMPA
[3] = target: T4, Dopaminergic receptor (D1) (Rattus norvegicus, UniProt P18901); assay: [^3H]SCH23390 competition binding, rat striatum membranes; details: radioligand [^3H]-SCH23390
T4 construct: from tissue; host or cells: Wistar rat brain synaptic membranes (striatum according to the earlier reading)

[4] = read-out: IC50 ± SEM ([^19F]FNM inhibition)

T3 sequence (P61169 whole entry): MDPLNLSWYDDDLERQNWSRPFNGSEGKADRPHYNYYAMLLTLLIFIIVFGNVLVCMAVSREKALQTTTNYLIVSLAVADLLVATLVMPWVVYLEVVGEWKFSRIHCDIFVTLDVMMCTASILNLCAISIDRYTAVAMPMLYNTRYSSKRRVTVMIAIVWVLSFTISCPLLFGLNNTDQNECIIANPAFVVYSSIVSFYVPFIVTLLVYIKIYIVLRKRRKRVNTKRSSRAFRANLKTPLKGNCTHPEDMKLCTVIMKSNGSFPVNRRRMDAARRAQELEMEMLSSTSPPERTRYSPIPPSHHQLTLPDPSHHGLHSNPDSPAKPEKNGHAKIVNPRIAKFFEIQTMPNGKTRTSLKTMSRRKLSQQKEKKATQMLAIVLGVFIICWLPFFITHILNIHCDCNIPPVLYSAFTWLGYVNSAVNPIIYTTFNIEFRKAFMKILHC
T4 sequence (P18901 whole entry): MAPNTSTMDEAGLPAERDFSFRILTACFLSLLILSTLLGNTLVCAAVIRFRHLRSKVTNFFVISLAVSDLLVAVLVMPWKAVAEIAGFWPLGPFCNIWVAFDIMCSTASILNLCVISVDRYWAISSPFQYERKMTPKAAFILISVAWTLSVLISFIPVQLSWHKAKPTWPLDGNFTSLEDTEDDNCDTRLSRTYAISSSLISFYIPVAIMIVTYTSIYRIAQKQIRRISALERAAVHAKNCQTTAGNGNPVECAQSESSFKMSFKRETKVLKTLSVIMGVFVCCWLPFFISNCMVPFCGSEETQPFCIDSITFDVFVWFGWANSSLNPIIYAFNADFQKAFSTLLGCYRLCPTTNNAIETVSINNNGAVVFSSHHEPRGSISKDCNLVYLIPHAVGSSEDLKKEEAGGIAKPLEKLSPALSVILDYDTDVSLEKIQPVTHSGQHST

Substance: Fluoroethylnormemantine [[^19F]FNM]
- selectivity for the NMDA receptor ion-channel compared to the other targets examined (NMDA PCP site; in the forebrain): at least sevenfold
- IC50 (NMDA PCP site; rat forebrain): 13 ± 8.9 µM
- IC50 (NMDA PCP site; rat frontal cortex): 80.8 ± 15.1 µM
- IC50 (NMDA PCP site; rat hippocampus): 52.9 ± 9.7 µM
- IC50 ± SEM ([^19F]FNM inhibition) [1]: did not displace; also recorded: No inhibition
- IC50 ± SEM ([^19F]FNM inhibition) [2]: did not displace
- IC50 [2, 4]: > 1000 µM
- IC50 ± SEM ([^19F]FNM inhibition) (Kaïnate receptor): did not displace; also recorded: No inhibition
- IC50 ± SEM ([^19F]FNM inhibition) (AMPA receptor): did not displace; also recorded: No inhibition
- IC50 ± SEM ([^19F]FNM inhibition) [3]: did not displace
- IC50 [3, 4]: > 1000 µM
